Measurements: ChEMBL document CHEMBL3352489, “6-Hydroxyquinolinium salts differing in the length of alkyl side-chain: synthesis and antimicrobial activity” (Bioorg Med Chem Lett, 2014)

Key:
[1] = system: Staphylococcus aureus; experiment: microbe, parasite or virus in culture; format: functional; conditions: CCM 4516/08, 24 h
Description: Antibacterial activity against Staphylococcus aureus CCM 4516/08 after 24 hrs by microdilution broth method

[2] = system: Staphylococcus aureus; experiment: microbe, parasite or virus in culture; format: functional; conditions: CCM 4516/08, 48 h
Description: Antibacterial activity against Staphylococcus aureus CCM 4516/08 after 48 hrs by microdilution broth method

[3] = system: Staphylococcus aureus; experiment: Bactericidal activity against Staphylococcus aureus CCM 4516/08 after 48 hrs by microdilution broth method; format: functional; conditions: CCM 4516/08, 48 h, read-out: MBC>99.9
[4] = system: Staphylococcus aureus; experiment: microbe, parasite or virus in culture; format: functional; conditions: H 5996/08, 24 h
Description: Antibacterial activity against Staphylococcus aureus H 5996/08 after 24 hrs by microdilution broth method

[5] = system: Staphylococcus aureus; experiment: microbe, parasite or virus in culture; format: functional; conditions: H 5996/08, 48 h
Description: Antibacterial activity against Staphylococcus aureus H 5996/08 after 48 hrs by microdilution broth method

[6] = system: Staphylococcus aureus; experiment: Bactericidal activity against Staphylococcus aureus H 5996/08 after 48 hrs by microdilution broth method; format: functional; conditions: H 5996/08, 48 h, read-out: MBC>99.9
[7] = system: Staphylococcus epidermidis; experiment: microbe, parasite or virus in culture; format: functional; conditions: H 6966/08, 24 h
Description: Antibacterial activity against Staphylococcus epidermidis H 6966/08 after 24 hrs by microdilution broth method

[8] = system: Staphylococcus epidermidis; experiment: microbe, parasite or virus in culture; format: functional; conditions: H 6966/08, 48 h
Description: Antibacterial activity against Staphylococcus epidermidis H 6966/08 after 48 hrs by microdilution broth method

[9] = system: Staphylococcus epidermidis; experiment: Bactericidal activity against Staphylococcus epidermidis H 6966/08 after 48 hrs by microdilution broth method; format: functional; conditions: H 6966/08, 48 h, read-out: MBC>99.9
[10] = system: Enterococcus sp.; experiment: microbe, parasite or virus in culture; format: functional; conditions: J 14365/08, 24 h
Description: Antibacterial activity against Enterococcus sp. J 14365/08 after 24 hrs by microdilution broth method

[11] = system: Enterococcus sp.; experiment: microbe, parasite or virus in culture; format: functional; conditions: J 14365/08, 48 h
Description: Antibacterial activity against Enterococcus sp. J 14365/08 after 48 hrs by microdilution broth method

[12] = system: Enterococcus sp.; experiment: Bactericidal activity against Enterococcus sp. J 14365/08 after 48 hrs by microdilution broth method; format: functional; conditions: J 14365/08, 48 h, read-out: MBC>99.9
[13] = system: Escherichia coli; experiment: microbe, parasite or virus in culture; format: functional; conditions: CCM 4517, 24 h
Description: Antibacterial activity against Escherichia coli CCM 4517 after 24 hrs by microdilution broth method

[14] = system: Escherichia coli; experiment: microbe, parasite or virus in culture; format: functional; conditions: CCM 4517, 48 h
Description: Antibacterial activity against Escherichia coli CCM 4517 after 48 hrs by microdilution broth method

[15] = system: Escherichia coli; experiment: Bactericidal activity against Escherichia coli CCM 4517 after 48 hrs by microdilution broth method; format: functional; conditions: CCM 4517, 48 h, read-out: MBC>99.9
[16] = system: Klebsiella pneumoniae; experiment: microbe, parasite or virus in culture; format: functional; conditions: D 11750/08, 24 h
Description: Antibacterial activity against Klebsiella pneumoniae D 11750/08 after 24 hrs by microdilution broth method

[17] = system: Klebsiella pneumoniae; experiment: microbe, parasite or virus in culture; format: functional; conditions: D 11750/08, 48 h
Description: Antibacterial activity against Klebsiella pneumoniae D 11750/08 after 48 hrs by microdilution broth method

[18] = system: Klebsiella pneumoniae; experiment: Bactericidal activity against Klebsiella pneumoniae D 11750/08 after 24 hrs by microdilution broth method; format: functional; conditions: D 11750/08, 24 h, read-out: MBC>99.9
[19] = system: Klebsiella pneumoniae; experiment: microbe, parasite or virus in culture; format: functional; conditions: J 14368/08, 24 h
Description: Antibacterial activity against Klebsiella pneumoniae J 14368/08 after 24 hrs by microdilution broth method

[20] = system: Klebsiella pneumoniae; experiment: microbe, parasite or virus in culture; format: functional; conditions: J 14368/08, 48 h
Description: Antibacterial activity against Klebsiella pneumoniae J 14368/08 after 48 hrs by microdilution broth method

[21] = system: Klebsiella pneumoniae; experiment: Bactericidal activity against Klebsiella pneumoniae J 14368/08 after 48 hrs by microdilution broth method; format: functional; conditions: J 14368/08, 48 h, read-out: MBC>99.9
[22] = system: Pseudomonas aeruginosa; experiment: microbe, parasite or virus in culture; format: functional; conditions: CCM 1961, 72 h
Description: Antibacterial activity against Pseudomonas aeruginosa CCM 1961 after 72 hrs by microdilution broth method

[23] = system: Pseudomonas aeruginosa; experiment: microbe, parasite or virus in culture; format: functional; conditions: CCM 1961, 120 h
Description: Antibacterial activity against Pseudomonas aeruginosa CCM 1961 after 120 hrs by microdilution broth method

[24] = system: Pseudomonas aeruginosa; experiment: Bactericidal activity against Pseudomonas aeruginosa CCM 1961 after 120 hrs by microdilution broth method; format: functional; conditions: CCM 1961, 120 h, read-out: MBC>99.9
[25] = system: Candida albicans; experiment: microbe, parasite or virus in culture; format: functional; conditions: ATCC 44859, 24 h
Description: Antifungal activity against Candida albicans ATCC 44859 after 24 hrs by modified standard CSLI M27-A2 method

[26] = system: Candida albicans; experiment: microbe, parasite or virus in culture; format: functional; conditions: ATCC 44859, 48 h
Description: Antifungal activity against Candida albicans ATCC 44859 after 48 hrs by modified standard CSLI M27-A2 method

[27] = system: Candida albicans; experiment: Fungicidal activity against Candida albicans ATCC 44859 after 48 hrs by modified standard CSLI M27-A2 method; format: functional; conditions: ATCC 44859, 48 h
[28] = system: Candida tropicalis; experiment: microbe, parasite or virus in culture; format: functional; conditions: Candida tropicalis, 156, 24 h
Description: Antifungal activity against Candida tropicalis 156 after 24 hrs by modified standard CSLI M27-A2 method

[29] = system: Candida tropicalis; experiment: microbe, parasite or virus in culture; format: functional; conditions: Candida tropicalis, 156, 48 h
Description: Antifungal activity against Candida tropicalis 156 after 48 hrs by modified standard CSLI M27-A2 method

[30] = system: Candida tropicalis; experiment: Fungicidal activity against Candida tropicalis 156 after 48 hrs by modified standard CSLI M27-A2 method; format: functional; conditions: Candida tropicalis, 156, 48 h
[31] = system: Pichia kudriavzevii; experiment: Antifungal activity against Candida krusei E28 after 24 hrs by modified standard CSLI M27-A2 method; format: functional; conditions: E28, 24 h
[32] = system: Pichia kudriavzevii; experiment: Antifungal activity against Candida krusei E28 after 48 hrs by modified standard CSLI M27-A2 method; format: functional; conditions: E28, 48 h
[33] = system: Pichia kudriavzevii; experiment: Fungicidal activity against Candida krusei E28 after 48 hrs by modified standard CSLI M27-A2 method; format: functional; conditions: E28, 48 h
[34] = system: Nakaseomyces glabratus; experiment: Antifungal activity against Candida glabrata 20/I after 24 hrs by modified standard CSLI M27-A2 method; format: functional
[35] = system: Nakaseomyces glabratus; experiment: Antifungal activity against Candida glabrata 20/I after 48 hrs by modified standard CSLI M27-A2 method; format: functional
[36] = system: Nakaseomyces glabratus; experiment: Fungicidal activity against Candida glabrata 20/I after 48 hrs by modified standard CSLI M27-A2 method; format: functional
[37] = system: Trichosporon asahii; experiment: microbe, parasite or virus in culture; format: functional; conditions: Trichosporon asahii, 1188, 24 h
Description: Antifungal activity against Trichosporon asahii 1188 after 24 hrs by modified standard CSLI M27-A2 method

[38] = system: Trichosporon asahii; experiment: microbe, parasite or virus in culture; format: functional; conditions: Trichosporon asahii, 1188, 48 h
Description: Antifungal activity against Trichosporon asahii 1188 after 48 hrs by modified standard CSLI M27-A2 method

[39] = system: Trichosporon asahii; experiment: Fungicidal activity against Trichosporon asahii 1188 after 48 hrs by modified standard CSLI M27-A2 method; format: functional; conditions: Trichosporon asahii, 1188, 48 h
[40] = system: Aspergillus fumigatus; experiment: microbe, parasite or virus in culture; format: functional; conditions: Aspergillus fumigatus, 231, 24 h
Description: Antifungal activity against Aspergillus fumigatus 231 after 24 hrs by modified standard CSLI M27-A2 method

[41] = system: Aspergillus fumigatus; experiment: microbe, parasite or virus in culture; format: functional; conditions: Aspergillus fumigatus, 231, 48 h
Description: Antifungal activity against Aspergillus fumigatus 231 after 48 hrs by modified standard CSLI M27-A2 method

[42] = system: Aspergillus fumigatus; experiment: Fungicidal activity against Aspergillus fumigatus 231 after 48 hrs by modified standard CSLI M27-A2 method; format: functional; conditions: Aspergillus fumigatus, 231, 48 h
[43] = system: Lichtheimia corymbifera; experiment: microbe, parasite or virus in culture; format: functional; conditions: Lichtheimia corymbifera, 272, 24 h
Description: Antifungal activity against Absidia corymbifera 272 after 24 hrs by modified standard CSLI M27-A2 method

[44] = system: Lichtheimia corymbifera; experiment: microbe, parasite or virus in culture; format: functional; conditions: Lichtheimia corymbifera, 272, 48 h
Description: Antifungal activity against Absidia corymbifera 272 after 48 hrs by modified standard CSLI M27-A2 method

[45] = system: Lichtheimia corymbifera; experiment: Fungicidal activity against Absidia corymbifera 272 after 48 hrs by modified standard CSLI M27-A2 method; format: functional; conditions: Lichtheimia corymbifera, 272, 48 h
[46] = system: Trichophyton mentagrophytes; experiment: microbe, parasite or virus in culture; format: functional; conditions: Trichophyton mentagrophytes, 445, 72 h
Description: Antifungal activity against Trichophyton mentagrophytes 445 after 72 hrs by modified standard CSLI M27-A2 method

[47] = system: Trichophyton mentagrophytes; experiment: microbe, parasite or virus in culture; format: functional; conditions: Trichophyton mentagrophytes, 445, 120 h
Description: Antifungal activity against Trichophyton mentagrophytes 445 after 120 hrs by modified standard CSLI M27-A2 method

[48] = system: Trichophyton mentagrophytes; experiment: Fungicidal activity against Trichophyton mentagrophytes 445 after 120 hrs by modified standard CSLI M27-A2 method; format: functional; conditions: Trichophyton mentagrophytes, 445, 120 h
[49] = Cytotoxicity against CHOK1 cells after 24 hrs by MTT assay; format: ADME, cell-based; conditions: Cricetulus griseus, CHO-K1, 24 h

CCCCCCCCCCCCCC[N+](C)(C)Cc1ccccc1
MIC95 [1]: 0.98 µM
MIC95 [2]: 0.98 µM
MBC [3]: 3.91 µM
MIC95 [4]: 1.95 µM
MIC95 [5]: 1.95 µM
MBC [6]: 3.91 µM
MIC95 [7]: 0.98 µM
MIC95 [8]: 0.98 µM
MBC [9]: 0.98 µM
MIC95 [10]: 1.95 µM
MIC95 [11]: 1.95 µM
MBC [12]: 7.81 µM
MIC95 [13]: 7.81 µM
MIC95 [14]: 7.81 µM
MBC [15]: 7.81 µM
MIC95 [16]: 7.81 µM
MIC95 [17]: 7.81 µM
MBC [18]: 7.81 µM
MIC95 [19]: 7.81 µM
MIC95 [20]: 7.81 µM
MBC [21]: 7.81 µM
MIC95 [22]: 15.6 µM
MIC95 [23]: 31.2 µM
MBC [24]: 62.5 µM
MIC [25]: 7.81 µM
MIC [26]: 7.81 µM
MFC [27]: 125 µM
MIC [28]: 3.91 µM
MIC [29]: 3.91 µM
MFC [30]: 125 µM
MIC [31]: 3.91 µM
MIC [32]: 3.91 µM
MFC [33]: 125 µM
MIC [34]: 7.81 µM
MIC [35]: 7.81 µM
MFC [36]: 125 µM
MIC [37]: 31.2 µM
MIC [38]: 31.2 µM
MFC [39]: 125 µM
MIC [40]: 7.81 µM
MIC [41]: 15.6 µM
MFC [42]: 125 µM
MIC [43]: 31.2 µM
MIC [44]: 31.2 µM
MFC [45]: 125 µM
MIC [46]: 15.6 µM
MIC [47]: 15.6 µM
MFC [48]: 15.6 µM
IC50 [49]: 24 µM
